Molecules are shown by their SMILES.

For this test, the target named is cytochrome c oxidase (complex IV) (Bos taurus, UniProt P00396). In words: spectrophotometric ferrocytochrome c oxidation at […] nm. The test is classed as biochemical.

For orientation: Ki means a measure of affinity in units of concentration, obtained from inhibition or displacement. In turn, `S` [sulfide] came in with a Ki of 85 nM.

These data come from article PMC5494963 (Chemical research in toxicology, 2011).
